Experimental data taken from ChEMBL document CHEMBL5150063, “Discovery of Orally Bioavailable N-Benzylpiperidinol Derivatives as Potent and Selective USP7 Inhibitors with In Vivo Antitumor Immunity Activity against Colon Cancer” (J Med Chem, 2022).
Active and inactive are the calls of the source. No cut-off for these calls is given here.

What was measured:
MC-38 [1] = test: Antitumor activity against mouse MC38 cells allografted in C57BL/6J mouse assessed as decrease in M2 cells at 20 mg/kg, po administered daily for 20 days; format: functional, organism-based; conditions: time 20.0 day
MC-38 [2] = test: Antitumor activity against mouse MC38 cells allografted in C57BL/6J mouse assessed as increase in INFalpha level at 100 mg/kg, po administered daily for 20 days by ELISA; format: functional, organism-based; conditions: time 20.0 day
MC-38 [3] = test: Antitumor activity against mouse MC38 cells allografted in C57BL/6J mouse assessed as tumor growth inhibition at 20 mg/kg, po administered once daily for 21 days; format: functional; conditions: MC-38, 504 h, time 21 day, read-out: TGI
MC-38 [4] = test: Antitumor activity against mouse MC38 cells allografted in C57BL/6J mouse assessed as increase in TNFalpha level at 100 mg/kg, po administered daily for 20 days by ELISA (reference value: […]); format: functional; conditions: time 20 day
MC-38 [5] = test: Antitumor activity against mouse MC38 cells allografted in C57BL/6J mouse assessed as upregulation of CD8+ T-cells in T-lymphocytes at 100 mg/kg, po administered daily for 20 days (reference value: 5.2%); format: functional; conditions: time 20 day
MC-38 [6] = test: Antitumor activity against mouse MC38 cells allografted in po dosed C57BL/6J mouse assessed as reduction in tumor growth administered once daily for 21 days; format: functional, organism-based; conditions: time 21.0 day, DDE = dose-dependent effect
MC-38 [7] = test: Antitumor activity against mouse MC38 cells allografted in C57BL/6J mouse assessed as upregulation of NKT-cells in CD45+ cells at 100 mg/kg, po administered daily for 20 days (reference value: […]); format: functional; conditions: time 20 day
MC-38 [8] = test: Antitumor activity against mouse MC38 cells allografted in C57BL/6J mouse assessed as upregulation of NKT-cells in CD45+ cells at 20 mg/kg, po administered daily for 20 days (reference value: […]); format: functional; conditions: time 20 day
MC-38 [9] = test: Antitumor activity against mouse MC38 cells allografted in C57BL/6J mouse assessed as upregulation of NK-cells in CD45+ cells at 20 mg/kg, po administered daily for 20 days (reference value: 3.7%); format: functional; conditions: time 20 day
MC-38 [10] = test: Antitumor activity against mouse MC38 cells allografted in C57BL/6J mouse assessed as decrease in spleen index at 20 to 100 mg/kg, po administered daily for 20 days; format: functional, organism-based; conditions: dose 20-100 mg/kg, time 20.0 day
MC-38 [11] = test: Antitumor activity against mouse MC38 cells allografted in C57BL/6J mouse assessed as downregulation of Treg in CD4+ T-cells at 100 mg/kg, po administered daily for 20 days (reference value: 10.1%); format: functional; conditions: time 20 day
MC-38 [12] = test: Antitumor activity against mouse MC38 cells allografted in C57BL/6J mouse assessed as upregulation of NK-cells in CD45+ cells at 100 mg/kg, po administered daily for 20 days (reference value: 3.7%); format: functional; conditions: time 20 day
MC-38 [13] = test: Antitumor activity against mouse MC38 cells allografted in C57BL/6J mouse assessed as increase in M1 cells at 20 mg/kg, po administered daily for 20 days; format: functional, organism-based; conditions: time 20.0 day
MC-38 [14] = test: Antitumor activity against mouse MC38 cells allografted in C57BL/6J mouse assessed as increase in IL-2 level at 100 mg/kg, po administered daily for 20 days by ELISA; format: functional, organism-based; conditions: time 20.0 day
[15] = target: T1, Ubiquitin carboxyl-terminal hydrolase 7 (Homo sapiens, UniProt Q93009); test: Inhibition of full-length USP7 (unknown origin) using ubiquitin-rhodamine 110 as substrate preincubated for 30 mins followed by substrate addition and measured after 2 hrs by microplate spectrophotometer analysis
T1 sequence (Q93009 whole entry): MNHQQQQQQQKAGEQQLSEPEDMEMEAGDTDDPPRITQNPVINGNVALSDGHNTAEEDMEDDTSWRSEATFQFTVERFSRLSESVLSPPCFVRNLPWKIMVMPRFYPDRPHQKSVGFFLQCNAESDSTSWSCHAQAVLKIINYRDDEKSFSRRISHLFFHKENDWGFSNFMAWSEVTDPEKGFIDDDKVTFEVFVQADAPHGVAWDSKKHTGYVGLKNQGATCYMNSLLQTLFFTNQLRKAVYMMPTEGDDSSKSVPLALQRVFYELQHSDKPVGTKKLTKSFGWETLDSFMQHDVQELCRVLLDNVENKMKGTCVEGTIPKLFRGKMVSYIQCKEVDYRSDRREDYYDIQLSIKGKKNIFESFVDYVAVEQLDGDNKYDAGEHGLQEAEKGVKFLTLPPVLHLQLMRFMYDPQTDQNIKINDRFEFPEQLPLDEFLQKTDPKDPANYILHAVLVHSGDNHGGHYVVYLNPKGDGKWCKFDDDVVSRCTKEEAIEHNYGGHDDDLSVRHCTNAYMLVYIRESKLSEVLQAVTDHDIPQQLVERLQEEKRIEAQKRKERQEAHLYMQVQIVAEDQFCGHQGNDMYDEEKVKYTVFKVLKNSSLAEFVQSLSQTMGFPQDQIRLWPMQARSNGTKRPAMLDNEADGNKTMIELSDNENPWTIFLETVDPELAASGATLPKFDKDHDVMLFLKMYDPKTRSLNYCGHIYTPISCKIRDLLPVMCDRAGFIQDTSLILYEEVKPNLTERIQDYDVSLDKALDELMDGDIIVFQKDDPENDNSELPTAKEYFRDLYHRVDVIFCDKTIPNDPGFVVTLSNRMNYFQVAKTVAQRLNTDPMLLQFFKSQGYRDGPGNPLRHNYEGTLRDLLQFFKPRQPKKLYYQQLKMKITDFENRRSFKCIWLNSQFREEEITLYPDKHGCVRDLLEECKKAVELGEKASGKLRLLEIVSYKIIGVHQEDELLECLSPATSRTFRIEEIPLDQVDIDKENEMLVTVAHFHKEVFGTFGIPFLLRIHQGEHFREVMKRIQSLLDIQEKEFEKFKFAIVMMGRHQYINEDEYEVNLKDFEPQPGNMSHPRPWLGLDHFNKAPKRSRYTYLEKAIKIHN

MC-38 [16] = test: Antitumor activity against mouse MC38 cells allografted in C57BL/6J mouse assessed as downregulation of MDCS in CD45+ […] at 100 mg/kg, po administered daily for 20 days (reference value: 27.9%); format: functional; conditions: time 20 day
MC-38 [17] = test: Antitumor activity against mouse MC38 cells allografted in C57BL/6J mouse assessed as tumor growth inhibition at 100 mg/kg, po administered once daily for 21 days; format: functional; conditions: MC-38, 504 h, time 21 day, read-out: TGI
[18] = target: T1, Ubiquitin carboxyl-terminal hydrolase 7; test: Binding affinity to human USP7 (208 to 560 residues) by SPR method
MC-38 [19] = test: Antitumor activity against mouse MC38 cells allografted in C57BL/6J mouse assessed as increase in ratio of M1 to M2 cells at 20 mg/kg, po administered daily for 20 days; format: functional, organism-based; conditions: time 20.0 day
MC-38 [20] = test: Antitumor activity against mouse MC38 cells allografted in C57BL/6J mouse assessed as increase in TNFalpha level at 20 mg/kg, po administered daily for 20 days by ELISA (reference value: […]); format: functional; conditions: time 20 day

Cn1nc2c(=O)n(CC3(O)CCN(Cc4ccc(-c5ccco5)cc4Cl)CC3)cnc2c1-c1ccc(F)cc1
Activity (MC-38 [1]): Active | Activity (MC-38 [2]): Active | inhibition in vivo at 20 mg/kg (MC-38 [3]): 36.6% | Activity (MC-38 [4]): 2.79 pg/mL | Activity (MC-38 [5]): 9.9% | Activity (MC-38 [6]): Dde | Activity (MC-38 [7]): 18% | Activity (MC-38 [8]): 9.8% | Activity (MC-38 [9]): 7.5% | Activity (MC-38 [10]): Active | Activity (MC-38 [11]): 5.8% | Activity (MC-38 [12]): 12.2% | Activity (MC-38 [13]): Active | Activity (MC-38 [14]): Active | IC50 [15]: 64.5 nM | Activity (MC-38 [16]): 11.4% | inhibition in vivo at 100 mg/kg (MC-38 [17]): 74.2% | Kd [18]: 541 nM | Activity (MC-38 [19]): Active | Activity (MC-38 [20]): 2.66 pg/mL
